{
  "source": "patent US20230183305A1",
  "about": "“KERATIN BD-11, PREPARATION METHOD THEREFOR AND PHARMACEUTICAL COMPOSITION AND USE THEREOF” (INSTITUTE OF MATERIA MEDICA, CHINESE ACADEMY OF MEDICAL …, priority 2019, published 2023)",
  "format_in_all_cases": "in vivo, mouse",
  "key": {"[1]": {"test_system": "PTZ-induced epilepsy in ICR mice", "test": "Pentylenetetrazole (PTZ) induced epilepsy in mice", "details": "Retigabine 60 mg/kg", "procedure": "• Animals: male ICR mice; • Medicines: Pentylenetetrazol (PTZ), Retigabine, Protein BD-11.\nExperiment grouping: • Model group; • Retigabine 60 mg/kg group; • Protein BD-11, 50 mg/kg group, 200 mg/kg group;\nThe drug was administered once in the afternoon the day before modeling, On the day of modeling, PTZ-65 mg/kg (modeling agent) was injected intraperitoneal 1 hour after the test drug was administered intragastrically, and the positive drug can be administered once half an hour before modeling. Continue to observe for 15 minutes after injection of PTZ.\nObservation index: ①Seizure situation: the time of seizures from Grade III to […]; ②Death situation\n(§1) Seizure grade: Refer to Racine grading standard: Grade 0: No response; Grade I: manifested as twitching of facial muscles or the corners of the mouth; Grade II: can nod; Grade III: twitching of one limb; Grade IV: rigidity or body twitching; Grade V: generalized epilepsy (generalized tonic seizures).\nCount the cases of seizures and deaths in each group of mice in the experiment; Grade III and IV incubation period. The incubation period of mice that have not attacked to Grade IV is recorded as the maximum of 900 seconds. Chi-square test was used for statistics of the number of cases. Calculate the mean and standard error of the incubation period. Use TTEST to compare the model group with other groups, and P<0.05 is considered as a significant difference."}, "[2]": {"test_system": "ammonia water induced cough in ICR mice", "test": "Antitussive test, cough induced by ammonia water in mice", "procedure": "• Animals: male ICR mice; • Drugs and reagents: dextromethorphan hydrobromide, ammonia water, 0.2% CMC-Na, protein BD-11; • Apparatus: Compressed nebulizer (403T type), balance (XS105DU type).\nExperiment grouping: • Solvent control group; • Dextromethorphan 15 mg/kg group; • Protein BD-11, 20 mg/kg group, 50 mg/kg group.\nDextromethorphan and different doses of protein BD-11 (administration volume 10 ml/kg) were given orally in groups, and the solvent control group was given the same volume of distilled water. One hour later, mice were put into a sealed box and atomized 10% ammonia water for 10 seconds, and then observed and recorded the incubation period of cough in mice and the number of coughs in 2 minutes.\nRecord the time point of oral administration, the time point of atomization experiment, the incubation period of mice cough and the number of coughs within 2 minutes, respectively. The incubation period of cough refers to the number of seconds from the start of the atomization of ammonia to the occurrence of cough. The performance of coughing in mice is based on contraction of their abdominal muscles (breast contraction) and opening their mouths at the same time. Calculate the mean and standard error of each group of data, and use TTEST to compare the model group with other groups, and P<0.05 is considered as a significant difference.\nGive dextromethorphan (15 mg/kg) and different doses of protein BD-11 (20 mg/kg, 50 mg/kg) in advance, One hour later, the mice were put into a sealed box and atomized 10% ammonia water for 10 seconds, and then the mice were observed and recorded the incubation period of coughing and the number of coughs within 2 minutes."}, "[3]": {"test_system": "PLO-induced epilepsy in ICR mice", "test": "Pilocarpine (PLO) induced convulsive epilepsy in mice", "design": "mortality rate: unit not given here", "details": "Diazepam 2 mg/kg", "procedure": "• Animals: male ICR mice; • Drugs: Pilocarpine HCl (PLO, pilocarpine, pilocarpine hydrochloride), Diazepam (diazepam tablets), protein BD-11.\nExperiment grouping: • Model group: • Diazepam 2 mg/kg group; • Protein BD-11, 50 mg/kg group, 200 mg/kg group.\nThe drug was administered once in the afternoon the day before modeling, PLO-225 mg/kg (modeling agent) was injected intraperitoneally 1 hour after the test drug was administered intragastrically on the day of modeling. And positive drug can be administered once 20 minutes before modeling. Observe for 30 minutes after PLO injection.\nObservation indicators: ①Seizure situation: the time of seizures from Grade II to Grade IV; (2)the time to death.\nas §1\nCount the number of Grade IV seizures and deaths in each group of mice in the experiment; Grade II, III and IV incubation period. […] Chi-square test was used for statistics of the number of cases. The mean value and standard error of the incubation period were calculated, and TTEST was used to compare the model group with other groups. P<0.05 was considered as a significant difference."}},
  "note": "Where a name gives a salt, the structure may show the parent alone. Marks after values point to notes of the source that are not given here.",
  "data": [
    {"smiles": "CCOC(=O)Nc1ccc(NCc2ccc(F)cc2)cc1N", "note": "[Retigabine, reference compound]", "values": [
      {"measurement": "Cases of deaths", "setting": "[1]; PTZ 65 mg/kg i.p., 10 mice", "result": 0},
      {"measurement": "Grade IV seizure rate", "setting": "[1]; PTZ 65 mg/kg i.p., 10 mice", "result": 20, "unit": "%**"},
      {"measurement": "mortality rate", "setting": "[1]; PTZ 65 mg/kg i.p., 10 mice", "result": 0},
      {"measurement": "Cases of Grade IV", "setting": "[1]; PTZ 65 mg/kg i.p., 10 mice, 15 min observation", "result": "2**"},
      {"measurement": "Grade III seizure incubation period", "setting": "[1]; PTZ model, mean±SEM", "result": "83 ± 7", "unit": "s"},
      {"measurement": "Grade IV seizure incubation period", "setting": "[1]; PTZ model, mean±SEM, no Grade IV recorded as maximum 900 s", "result": "745 ± 103", "unit": "s"}
    ]},
    {"smiles": "COc1ccc2c(c1)[C@]13CCCC[C@@H]1[C@H](C2)N(C)CC3", "note": "[Dextromethorphan, dextromethorphan hydrobromide, reference compound]", "values": [
      {"measurement": "Incubation period (cough)", "setting": "[2]; Dextromethorphan 15 mg/kg oral, 10% ammonia water 10 s, X±SEM, n=9", "result": "38.4 ± 4.5", "unit": "s"},
      {"measurement": "Number of coughs", "setting": "[2]; Dextromethorphan 15 mg/kg oral, within 2 minutes, X±SEM, n=9", "result": "34.0±2.9"},
      {"measurement": "Incubation period and number of coughs vs solvent control group", "setting": "[2]; dextromethorphan 15 mg/kg, P<0.05", "result": "significant improvement"}
    ]},
    {"smiles": "CN1C(=O)CN=C(c2ccccc2)c2cc(Cl)ccc21", "note": "[Diazepam, reference compound]", "values": [
      {"measurement": "Cases of deaths", "setting": "[3]; PLO 225 mg/kg i.p., 10 mice", "result": 0},
      {"measurement": "Grade IV seizure rate", "setting": "[3]; PLO 225 mg/kg i.p., 10 mice", "result": "0**"},
      {"measurement": "mortality rate", "setting": "[3]; PLO 225 mg/kg i.p., 10 mice", "result": 0},
      {"measurement": "Cases of Grade IV", "setting": "[3]; PLO 225 mg/kg i.p., 10 mice, 30 min observation", "result": "0**"},
      {"measurement": "Grade II seizure incubation period", "setting": "[3]; PLO model, mean±SEM", "result": "109 ± 8", "unit": "s"},
      {"measurement": "Grade III seizure incubation period", "setting": "[3]; PLO model, mean±SEM", "result": "182 ± 14", "unit": "s"},
      {"measurement": "Grade IV seizure incubation period", "setting": "[3]; PLO model, mean±SEM, no Grade IV recorded as maximum 1800 s", "result": "1800 ± 0", "unit": "s"}
    ]}
  ]
}
